Data published in patent US5073563A, “Alkoxycoumarins substituted by a heterocyclic radical, their preparation and therapeutic agents containing these compounds” (BASF Aktiengesellschaft, priority 1988, dated 1991).
pIC50: −log10 of the molar value. Where a name gives a salt, the structure may show the parent alone.

Experiments:
[1] = literature test; cited from earlier work
[2] = literature test; cited from earlier work; remark: listed apart in the source
MAO A = target: T1, MAO A (Rattus norvegicus, UniProt P21396); assay: MAO A inhibition in dilute rat brain homogenate (14C substrate, 20 min at 37° C); type: biochemical; details: 14C-phenylethylamine or 14C-tryptamine 0.4 μmol/l, logit-log regression
T1 construct: determined in dilute rat brain homogenate; from tissue; host or cells: rat brain homogenate
T1 sequence (P21396 1-526): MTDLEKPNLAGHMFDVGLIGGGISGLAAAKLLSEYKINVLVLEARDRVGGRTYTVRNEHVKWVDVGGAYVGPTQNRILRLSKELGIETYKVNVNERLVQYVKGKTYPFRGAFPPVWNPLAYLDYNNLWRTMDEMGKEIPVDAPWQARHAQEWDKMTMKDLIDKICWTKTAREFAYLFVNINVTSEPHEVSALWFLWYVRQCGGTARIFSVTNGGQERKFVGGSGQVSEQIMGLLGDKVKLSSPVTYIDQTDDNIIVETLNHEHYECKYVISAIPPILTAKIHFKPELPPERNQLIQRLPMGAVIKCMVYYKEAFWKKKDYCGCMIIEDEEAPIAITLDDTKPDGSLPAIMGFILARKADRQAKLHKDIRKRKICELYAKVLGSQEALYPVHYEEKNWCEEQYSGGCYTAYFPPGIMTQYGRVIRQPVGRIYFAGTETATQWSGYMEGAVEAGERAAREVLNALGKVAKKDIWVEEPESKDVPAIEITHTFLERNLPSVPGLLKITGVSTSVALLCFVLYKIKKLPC
Description: (§1) The MAO-inhibiting activity of the novel compounds can be determined using standard methods. […] The mixture was incubated for 20 minutes at 37° C.
(§2) The blank value was determined in similar mixtures with an incubation time of t=0 min.
(§3) From the inhibitory values determined at the various inhibitor concentrations against a control, the mean inhibitory concentration (IC50) was calculated by linear regression following logit-log transformation.

MAO B = target: T2, MAO B (Rattus norvegicus, UniProt P19643); assay: MAO B inhibition in dilute rat brain homogenate (14C substrate, 20 min at 37° C); type: biochemical; details: for IC50 ratio MAO A / MAO B: quotient of IC50 MAO A and IC50 MAO B (selectivity for MAO B), 20 min; for pIC50: rat brain homogenate, 14C-phenylethylamine or 14C-tryptamine 0.4 μmol/l, 20 minutes at 37° C, logit-log regression
T2 construct: determined in dilute rat brain homogenate; from tissue; host or cells: rat brain homogenate
T2 sequence (P19643 1-520): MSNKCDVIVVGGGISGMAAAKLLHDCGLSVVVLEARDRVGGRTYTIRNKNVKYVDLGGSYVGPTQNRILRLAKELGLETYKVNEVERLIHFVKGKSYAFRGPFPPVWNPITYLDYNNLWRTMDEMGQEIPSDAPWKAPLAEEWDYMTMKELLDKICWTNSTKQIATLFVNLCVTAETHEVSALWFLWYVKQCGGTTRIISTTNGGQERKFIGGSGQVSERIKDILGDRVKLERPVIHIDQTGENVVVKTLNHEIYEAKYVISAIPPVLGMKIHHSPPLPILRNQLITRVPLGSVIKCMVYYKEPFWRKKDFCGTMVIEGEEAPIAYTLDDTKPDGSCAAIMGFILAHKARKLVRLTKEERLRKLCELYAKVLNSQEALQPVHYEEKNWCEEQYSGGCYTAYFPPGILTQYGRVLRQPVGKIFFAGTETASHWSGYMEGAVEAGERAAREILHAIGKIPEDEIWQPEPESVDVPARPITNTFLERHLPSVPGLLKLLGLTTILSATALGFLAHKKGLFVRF
Description: as §1, §2, §3

SMILES	pIC50 (MAO A)	IC50 ratio MAO A / MAO B (MAO B)	pIC50 (MAO B)	fungicidal action [1]	bacteriostatic action [2]
Cc1cc(=O)oc2cc(OCc3cc(-c4ccccc4)no3)ccc12 [4-methyl-7-(3-phenylisoxazol-5-yl-methoxy)-coumarin]	–	–	–	little or no success	little or no success
Cc1nnc(COc2cc3oc(=O)c(C)c(C)c3cc2Br)s1 [Example 67, 6-Bromo-3,4-dimethyl-7-(2methyl-1,3,4-thiadiazol-5-yl)-methoxycoumarin]	< 5.00	> 9100	8.96	–	–
Cc1c(C)c2ccc(OCc3ncnn3C(C)C)cc2oc1=O [Example 70, 7-(1-Isopropyl-1,2,4-triazol-5-yl)-methoxy-3,4-dimethylcoumarin hydrochloride]	< 5.00	> 770	7.89	–	–
Cc1c(C)c2ccc(OCc3cc(C(C)C)nn3C)cc2oc1=O [Example 72, 7-(3-Isopropyl-1-methylpyrazol-5-yl)-methoxy-3,4-dimethylcoumarin]	~5.00	~ 2000	8.31	–	–
Cc1c(C)c2ccc(OCc3csc(Cc4ccccc4)n3)cc2oc1=O [Example 74, 7-(2-Benzylthiazol-4-yl)-methoxy-3,4-dimethylcoumarin]	5.49	580	8.26	–	–
Cc1c(C)c2ccc(OCc3cc(C4CCCCC4)no3)cc2oc1=O [Example 87, 7-(3-Cyclohexylisoxazol-5-yl)-methoxy-3,4-dimethylcoumarin]	< 5.00	> 700	7.85	–	–
Cc1c(C)c2ccc(OCc3nnc(C4CC4)s3)cc2oc1=O [Example 94, 3,4-Dimethyl-7-(2-cyclopropyl-1,3,4-thiadiazol-5yl)-methoxycoumarin]	~5.00	~ 8300	8.92	–	–
Cc1c(C)c2ccc(OCc3cc(C4CCOC4)no3)cc2oc1=O (stereo not shown) [Example 97, 3,4-Dimethyl-7-[3-(tetrahydrofuran-3-yl)-isoxazol-5-yl]-methoxycoumarin]	~5.30	~ 1400	8.44	–	–
Cc1c(C)c2ccc(OCc3cc(C4CCCCC4)no3)cc2oc1=O [Example 99, 3,4-Dimethyl-7-(3-cyclohexylisoxazol-5-yl)-methoxycoumarin]	< 5.00	> 1200	8.09	–	–
Cc1c(C)c2cc(Cl)c(OCc3ccccn3)cc2oc1=O [Example 100, 6-Chloro-3,4-dimethyl-7-(2-pyridinyl)-methoxycoumarin]	< 5.00	> 13000	9.13	–	–
Cc1nnc(COc2cc3oc(=O)c(Cl)c(C)c3cc2Cl)s1 [Example 101, 3,6-Dichloro-4-methyl-7-(5-methyl-1,3,4-thiadiazol-2-yl)-methoxycoumarin]	< 5.00	> 10000	9.00	–	–
Cc1c(Cl)c(=O)oc2cc(OCc3csc(C(C)C)n3)c(Cl)cc12 [Example 103, 3,6-Dichloro-4-methyl-7-(2-isopropylthiazol-4-yl)-methoxycoumarin]	< 5.00	> 5500	8.74	–	–

Now from value to compound, other results behind:

pIC50 (MAO A)	IC50 ratio MAO A / MAO B (MAO B)	pIC50 (MAO B)	SMILES	fungicidal action [1]	bacteriostatic action [2]
< 5.00	> 13000	9.11	Cc1c(C)c2ccc(OCc3cc(C4CCC4)no3)cc2oc1=O [Example 68, 7-(3-Cyclobutylisoxazol-5-yl)-methoxy-3,4-dimethylcoumarin]	–	–
< 5.00	> 700	7.85	Cc1c(C)c2ccc(OCc3cc(C)n(C)n3)cc2oc1=O [Example 73, 3,4-Dimethyl-7-(1,5-dimethylpyrazol-3-yl)-methoxycoumarin]	–	–
~5.00	~ 7000	–	Cc1c(C)c2ccc(OCc3csc(C(C)C)n3)cc2oc1=O [Example 75, 7-(2-Isopropylthiazol-4-yl)-methoxy-3,4-dimethylcoumarin]	–	–
< 5.00	> 7700	8.89	Cc1c(C)c2ccc(OCc3cc(C4CCCC4)no3)cc2oc1=O [Example 78, 7-(3-Cyclopentylisoxazol-5-yl)-methoxy-3,4-dimethylcoumarin]	–	–
5.54	2400	8.92	COC(C)c1cc(COc2ccc3c(C)c(C)c(=O)oc3c2)on1 (stereo not shown) [Example 79, 7-[3-(1-Methoxyethyl)-isoxazol-5-yl]-methoxy-3,4-dimethylcoumarin]	–	–
~5.00	~ 7100	8.85	Cc1c(C)c2ccc(OCc3csc(C4CC4)n3)cc2oc1=O [Example 80, 7-(2-Cyclopropylthiazol-4-yl)-methoxy-3,4-dimethylcoumarin]	–	–
< 5.00	> 1100	8.04	CCc1cc2c(C)c(C)c(=O)oc2cc1OCc1cc(C(C)C)n(C)n1 [Example 84, 6-Ethyl-7-(5-isopropyl-1-methylpyrazol-3-yl)-methoxy-3,4-dimethylcoumarin]	–	–
< 5.00	> 1700	8.16	CCc1cc2c(C)c(C)c(=O)oc2cc1OCc1nnc(C)s1 [Example 85, 6-Ethyl-3,4-dimethyl-7-(2-methyl-1,3,4-thiadiazol-5-yl)-methoxycoumarin]	–	–
< 5.00	> 1000	~8.00	Cc1c(C)c2ccc(OCc3ccc(C(C)(C)C)s3)cc2oc1=O [Example 92, 7-(2-tert-Butylthiophen-5-yl)-methoxy-3,4-dimethylcoumarin]	–	–
~4.70	~ 32000	9.21	Cc1c(C)c2ccc(OCc3cc(C4(C)CC4)no3)cc2oc1=O [Example 96]	–	–
< 5.00	> 11000	9.04	Cc1c(C)c2ccc(OCc3nc(C4CCCC4)no3)cc2oc1=O [Example 98]	–	–
